Measurements from US9497963B2, “Methods and compositions for control of gypsy moth, Lymantria dispar” (Simon Fraser University, priority 2008, dated 2016).

Legend:
male gypsy moth antenna = assay: Coupled gas chromatographic-electroantennographic detection (GC-EAD); set-up: species or system Lymantria dispar; details: EAD peak size and shape (sharp/broad)
Summary of the method: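 GC column effluent split between flame ionization detector and an excised male moth antenna held between saline-filled glass capillary electrodes, tip removed, in a warm air stream. Antennal potentials assigned to compounds by matching retention times with FID peaks.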

L. dispar PBP 1 = assay: Pheromone-binding protein (PBP) ligand binding assay, PBP1; set-up: species or system Lymantria dispar
Summary of the method: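 L. dispar PBP1 or PBP2 equilibrated overnight in buffer with test compound or mini-library; free ligand removed by size-exclusion chromatography on P2 gel. Total and protein-bound ligand extracted and quantified by GC-MS per component; % bound = 100×[PBP·L]/[L]tot.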

[1] = member tested within library 3c{1, 1-5}
[2] = tested as single compound, means ± S.E., 4 replicates
[3] = member tested within library 3c{3, 1-5}
[4] = member tested within library 3c{2, 1-5}

Row | SMILES | GC-EAD activity (male gypsy moth antenna) | PBP1 (% bound) (L. dispar PBP 1; [1]) [%] | PBP1 (% bound) (L. dispar PBP 1; [2]) [%] | PBP1 (% bound) (L. dispar PBP 1; [3]) [%] | PBP1 (% bound) (L. dispar PBP 1; [4]) [%] | PBP1 (% bound) (L. dispar PBP 1; member tested within library 3c{5, 1-5}) [%]
1 | COc1ccc(OC)cc1 [3c{1,1}, 1,4-Dimethoxy benzene] | + sharp | 24 ± 0.3 | 40 ± 2.5 |  |  | 
2 | CCCOc1ccc(OC)cc1 [3c{1,3}, 1-methoxy-4-propoxy-benzene] | + sharp | 7 ± 0.5 |  | 13 ± 0.3 |  | 
3 | CCOc1ccc(OCC)cc1 [3c{2,2}, 1,4-Diethoxy benzene] | Trace |  | 28 ± 0.1 |  | 14 ± 0.5 | 
4 | CCCOc1ccc(OCC)cc1 [3c{2,3}, 1-ethoxy-4-propoxy benzene] | None |  |  | 13 ± 0.3 | 10 ± 0.3 | 
5 | CCCOc1ccc(OCCC)cc1 [3c{3,3}, 1,4-Dipropoxy benzene] | None |  | 15 ± 0.7 | 4 ± 0.3 |  | 
6 | CC(C)CCOc1ccc(OCCC(C)C)cc1 [3c{5,5}, 1,4-Di-(3-methyl-butyloxy) benzene] | None |  | 9 ± 0.7 |  |  | 5 ± 0.1
